Patent US20240360126A1, “PYRAZOLO[3,4-B]PYRIDINE COMPOUNDS FOR THE TREATMENT OF AUTOIMMUNE DISEASE” (Hoffmann-La Roche Inc., priority 2021, published 2024)

These compounds were tested against T1, human TLR8 (Homo sapiens, UniProt Q9NR97) (assay: HEK293-Blue-hTLR-8 cells assay). Details: HEK293-Blue-hTLR8 cells, R848 stimulation, 20 hrs; read-out: HEK/hTLR8 IC50.
T1 construct: host or cells: HEK293 (HEK-Blue hTLR8)
T1 sequence (Q9NR97 27-1041): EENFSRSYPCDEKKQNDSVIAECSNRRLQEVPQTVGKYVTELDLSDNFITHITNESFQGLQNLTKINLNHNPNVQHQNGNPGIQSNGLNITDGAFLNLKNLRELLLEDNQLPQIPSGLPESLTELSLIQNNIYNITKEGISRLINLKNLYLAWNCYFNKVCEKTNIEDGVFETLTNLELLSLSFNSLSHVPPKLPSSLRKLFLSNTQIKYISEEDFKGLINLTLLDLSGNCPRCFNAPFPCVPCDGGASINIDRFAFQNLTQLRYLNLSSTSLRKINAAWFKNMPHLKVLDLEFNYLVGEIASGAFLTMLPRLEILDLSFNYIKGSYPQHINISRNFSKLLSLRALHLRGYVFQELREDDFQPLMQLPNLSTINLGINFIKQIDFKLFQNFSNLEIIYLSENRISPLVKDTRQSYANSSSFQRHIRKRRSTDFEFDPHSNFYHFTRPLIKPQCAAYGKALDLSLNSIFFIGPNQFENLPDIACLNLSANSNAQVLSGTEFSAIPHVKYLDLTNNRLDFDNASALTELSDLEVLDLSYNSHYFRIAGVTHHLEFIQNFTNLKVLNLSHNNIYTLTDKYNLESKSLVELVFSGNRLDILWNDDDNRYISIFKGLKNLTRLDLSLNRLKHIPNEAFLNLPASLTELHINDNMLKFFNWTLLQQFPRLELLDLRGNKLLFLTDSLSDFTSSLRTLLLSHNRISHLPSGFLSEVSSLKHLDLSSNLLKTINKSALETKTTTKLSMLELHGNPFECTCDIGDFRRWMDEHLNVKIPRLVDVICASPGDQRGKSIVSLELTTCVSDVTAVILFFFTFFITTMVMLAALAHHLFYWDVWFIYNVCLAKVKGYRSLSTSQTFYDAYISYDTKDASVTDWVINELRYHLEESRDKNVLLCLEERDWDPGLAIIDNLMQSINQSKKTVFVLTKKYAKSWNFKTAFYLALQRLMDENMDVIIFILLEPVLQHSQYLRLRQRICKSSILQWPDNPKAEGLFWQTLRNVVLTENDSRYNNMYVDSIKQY
Type: cell-based
From the text: A stable HEK293-Blue-hTLR-8 cell line was purchased from InvivoGen (Cat. #: hkb-htlr8, San Diego, California, USA). These cells were originally designed for studying the stimulation of human TLR8 by monitoring the activation of NF-κB. A SEAP (secreted embryonic alkaline phosphatase) reporter gene was placed under the control of the IFN-β minimal promoter fused to five NF-κB and AP-1-binding sites. The SEAP was induced by activating NF-κB and AP-1 via stimulating HEK-Blue hTLR8 cells with TLR8 ligands. Therefore the reporter expression was declined by TLR8 antagonist under the stimulation of a ligand, such as R848, for incubation of 20 hrs. The cell culture supernatant SEAP reporter activity was determined using QUANTT-BlueTv™ kit (Cat. #: rep-qbl, Invivogen, San Diego, Ca, USA) at a wavelength of 640 nm, a detection medium that turns purple or blue in the presence of alkaline phosphatase.
HEK293-Blue-hTLR8 cells were incubated at a density of 250,000˜450,000 cells/mL in a volume of 170 μL in a 96-well plate in Dulbecco's Modified Eagle's medium (DMEM) containing 4.5 g/L glucose, 50 U/mi penicillin, […] streptomycin, […], 2 mM L-glutamine, 10% (v/v) heat-inactivated fetal bovine serum with addition of 20 μL test compound in a serial dilution in the presence of final DMSO at 1% and 10 μL of 60 μM R848 in above DMEM, perform incubation under 37° C. in a CO2 incubator for 20 hrs. Then 20 μL of the supernatant from each well was incubated with 180 μL Quanti-blue substrate solution at 37° C. for 2 hrs and the absorbance was read at 620-655 nm using a spectrophotometer. The signaling pathway that TLR8 activation leads to downstream NF-κB activation has been widely accepted, and therefore similar reporter assay was modified for evaluating TLR8 antagonist.

Compound	IC50 [nM]
Cc1cc(N2CC[C@@H](c3ncc(N4CC(C)(N)C4)cc3C)[C@H](C)C2)c2cnn(C)c2n1 [Example 32, 1-[6-[(3S,4R)-1-(1,6-dimethylpyrazolo[3,4-b]pyridin-4-yl)-3-methyl-4-piperidyl]-5-methyl-3-pyridyl]-3-methyl-azetidin-3-amine]	15
Cc1cc(N2CC[C@@H](c3ccc(N4CCNCC4)cn3)[C@H](C)C2)c2cnn(C)c2n1 [Example 34, 1,6-dimethyl-4-[(3S,4R)-3-methyl-4-(5-piperazin-1-yl-2-pyridyl)-1-piperidyl]pyrazolo[3,4-b]pyridine]	11
CO[C@@H]1CN(c2ccc([C@H]3CCN(c4cc(C)nc5c4cnn5C)C[C@@H]3C)nc2)C[C@H]1N [Example 36, (3R,4R)-1-[6-[(3R,4S)-1-(1,6-dimethylpyrazolo[3,4-b]pyridin-4-yl)-3-methyl-4-piperidyl]-3-pyridyl]-4-methoxy-pyrrolidin-3-amine]	21
COC[C@H]1CN(c2ccc([C@H]3CCN(c4cc(C)nc5c4cnn5C)C[C@@H]3C)nc2)CCN1 [Example 37, 4-[(3R,4S)-4-[5-[(3R)-3-(methoxymethyl)piperazin-1-yl]-2-pyridyl]-3-methyl-1-piperidyl]-1,6-dimethyl-pyrazolo[3,4-b]pyridine]	13
Cc1cc(N2CC[C@H](c3ccc(N4CC5(CNCCO5)C4)cn3)[C@@H](C)C2)c2cnn(C)c2n1 [Example 38, 2-[6-[(3R,4S)-1-(1,6-dimethylpyrazolo[3,4-b]pyridin-4-yl)-3-methyl-4-piperidyl]-3-pyridyl]-5-oxa-2,8-diazaspiro[3.5]nonane]	11
CO[C@H]1CN(c2ccc([C@H]3CCN(c4cc(C)nc5c4cnn5C)C[C@@H]3C)nc2)CC[C@@H]1N [Example 39, (3S,4S)-1-[6-[(3R,4S)-1-(1,6-dimethylpyrazolo[3,4-b]pyridin-4-yl)-3-methyl-4-piperidyl]-3-pyridyl]-3-methoxy-piperidin-4-amine]	10
Cc1cc(N2CC[C@H](c3ccc(N4CC[C@@H](N)[C@H](F)C4)cn3)[C@@H](C)C2)c2cnn(C)c2n1 [Example 41, (3R,4R)-1-[6-[(3R,4S)-1-(1,6-dimethylpyrazolo[3,4-b]pyridin-4-yl)-3-methyl-4-piperidyl]-3-pyridyl]-3-fluoro-piperidin-4-amine]	10

These reach a lower IC50. Values come first.

IC50 [nM]	Compound
8	COC[C@H]1CN(c2cnc([C@@H]3CCN(c4cc(C)nc5c4cnn5C)C[C@H]3C)c(C)c2)CCN1 [Example 29, 4-[(3S,4R)-4-[5-[(3R)-3-(methoxymethyl)piperazin-1-yl]-3-methyl-2-pyridyl]-3-methyl-1-piperidyl]-1,6-dimethyl-pyrazolo[3,4-b]pyridine]
9	Cc1cc(N2CC[C@@H](c3ncc(N4CC[C@@H](N)[C@H](F)C4)cc3C)[C@H](C)C2)c2cnn(C)c2n1 [Example 31, (3R,4R)-1-[6-[(3S,4R)-1-(1,6-dimethylpyrazolo[3,4-b]pyridin-4-yl)-3-methyl-4-piperidyl]-5-methyl-3-pyridyl]-3-fluoro-piperidin-4-amine]
3	Cc1cc(N2CC[C@@H](c3ncc(N4C[C@H]5NCCO[C@@H]5C4)cc3C)[C@H](C)C2)c2cnn(C)c2n1 [Example 33, (4aR,7aR)-6-[6-[(3S,4R)-1-(1,6-dimethylpyrazolo[3,4-b]pyridin-4-yl)-3-methyl-4-piperidyl]-5-methyl-3-pyridyl]-3,4,4a,5,7,7a-hexahydro-2H-pyrrolo[3,4-b][1,4]oxazine]
9	Cc1cc(N2CC[C@H](c3ccc(N4CCNCC4)cn3)[C@@H](C)C2)c2cnn(C)c2n1 [Example 35, 1,6-dimethyl-4-[(3R,4S)-3-methyl-4-(5-piperazin-1-yl-2-pyridyl)-1-piperidyl]pyrazolo[3,4-b]pyridine]
7	Cc1cc(N2CC[C@H](c3ccc(N4CCOC[C@@H](N)C4)cn3)[C@@H](C)C2)c2cnn(C)c2n1 [Example 40, (6S)-4-[6-[(3R,4S)-1-(1,6-dimethylpyrazolo[3,4-b]pyridin-4-yl)-3-methyl-4-piperidyl]-3-pyridyl]-1,4-oxazepan-6-amine]
6	Cc1cc(N2CC[C@H](c3ccc(N4CC(C)(N)C4)cn3)[C@@H](C)C2)c2cnn(C)c2n1 [Example 43, 1-[6-[(3R,4S)-1-(1,6-dimethylpyrazolo[3,4-b]pyridin-4-yl)-3-methyl-4-piperidyl]-3-pyridyl]-3-methyl-azetidin-3-amine]
